This is an account of results in patent US4595698A, “Physiologically active substance, arphamenine and production thereof” (Zaidan Hojin Biseibutsu Kagaku Kenkyu Kai, priority 1982, dated 1986).

Like-named read-outs stand apart in the source and are kept apart here.

This test addresses T1, aminopeptidase B (Rattus norvegicus, UniProt O09175).
T1 construct: an aminopeptidase B which had been purified with DEAE-Cellulose; from tissue
T1 sequence (O09175 1-650): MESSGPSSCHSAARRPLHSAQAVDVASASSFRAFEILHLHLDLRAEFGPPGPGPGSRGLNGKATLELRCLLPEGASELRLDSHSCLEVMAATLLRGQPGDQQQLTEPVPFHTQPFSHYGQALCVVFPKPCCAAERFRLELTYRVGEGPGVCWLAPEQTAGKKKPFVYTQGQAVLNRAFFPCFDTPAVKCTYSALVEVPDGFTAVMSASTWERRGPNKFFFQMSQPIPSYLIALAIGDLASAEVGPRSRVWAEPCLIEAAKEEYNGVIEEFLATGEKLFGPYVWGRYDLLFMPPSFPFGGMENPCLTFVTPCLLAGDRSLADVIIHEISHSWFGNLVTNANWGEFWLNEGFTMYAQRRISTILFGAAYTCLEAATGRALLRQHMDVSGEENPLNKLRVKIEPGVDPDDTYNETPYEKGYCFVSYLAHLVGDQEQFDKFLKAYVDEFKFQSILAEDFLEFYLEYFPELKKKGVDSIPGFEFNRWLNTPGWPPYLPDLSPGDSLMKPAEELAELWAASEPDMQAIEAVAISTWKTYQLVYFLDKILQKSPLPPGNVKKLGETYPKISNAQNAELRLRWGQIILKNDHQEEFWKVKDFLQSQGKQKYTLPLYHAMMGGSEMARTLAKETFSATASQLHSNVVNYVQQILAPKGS
Kind of test: Inhibition of aminopeptidase B (arginine-β-naphthylamide degradation, modified Hoppusu method). Type of test: biochemical. On the procedure: Tracing of arphamenine which was made during the course of cultivation of the arphamenine-producing strain, as well as during the course of recovery and purification of arphamenine was conducted by determining the anti-aminopeptidase B potency of arphamenine according to the following methods.
In detail, 0.5 ml of 0.1 M tris-hydrochloride buffer solution (pH 7.0) and 0.25 ml of a solution containing an arphamenine specimen were added to 0.25 ml of a substrate solution containing 0.002 M arginine-β-naphthylamide. The mixed solution so obtained was heated at 37° C. for 3 minutes. To the heated solution was added 5 μl of a solution of an aminopeptidase B which had been purified with DEAE-Cellulose according to the enzyme-purification technique of Hoppusu et al. The resulting mixture was reacted for 30 minutes at 37° C., and the resultant reaction mixture was admixed with 1 ml of 1.0 M acetate buffer solution (pH 4.2) containing Fast Garnet GBC (o-aminoazotoluene, diazonium salt) at a concentration of 1 mg/ml and a surfactant "Tween" 20 at a concentration of 10% to stop the enzyme reaction. After allowing the resulting mixture to stand at ambient temperature for 15 minutes, absorbance (a) at 525 nm of the reaction solution was measured. On the other hand, adsorbance (b) at 525 nm of a control reaction solution obtained from the blank test using the buffer solution containing no arphamenine was measured. Percent of inhibition to the aminopeptidase B was calculated from the equation [(b-a)/b]×100.

As to `N=C(N)NCCCC(N)C(=O)CC(Cc1ccccc1)C(=O)O` (stereo not shown) [Arphamenine A], the half-inhibitory concentration (IC50) (colorless, pure powder, Examples 4 and 5, read-out: anti-aminopeptidase B potency, IC50 (converted)) is 16.9 nM; the concentration for half-maximal inhibition (IC50) (colorless, pure product, pH 7.0, 37° C., 30 minutes, read-out: IC50, dose giving 50% inhibition to the aminopeptidase B (converted)) is 15.6 nM; the IC50 (crude powder after CM-Sephadex C-25, Example 3, read-out: anti-aminopeptidase B potency, IC50 (converted)) was 20.3 nM; the IC50 (light yellow powder after Biogel P-2, Examples 8 and 9, read-out: anti-aminopeptidase B potency (IC50) (converted)) was 93.6 nM.

As a reminder, the IC50 is the concentration at which inhibition is half-maximal.
